Molecules are shown by their SMILES.

The IC50 is the concentration that inhibits the measured activity by half. A lower IC50 goes with higher potency.

This assay addresses T1, cellular PARG (Homo sapiens, UniProt Q86W56).
T1 construct: endogenous in cells; host or cells: HeLa
The assay is described as follows: Nuclear PAR accumulation assay (immunofluorescence high-content imaging, MMS-treated HeLa cells). Conditions: 1 hour compound then MMS 50 μg/mL for an additional hour. In kind it is cell-based. The gist of the method: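 HeLa cells pretreated with compound for 1 h at 37° C, then given 50 μg/mL MMS for another hour. After methanol fixation, PAR was immunostained with DAPI nuclear counterstain; per-nucleus intensity and percent PAR-positive cells were imaged at 20× (≥1,000 cells/well). IC50 from four-parameter logistic fit.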

T1 sequence (Q86W56 whole entry): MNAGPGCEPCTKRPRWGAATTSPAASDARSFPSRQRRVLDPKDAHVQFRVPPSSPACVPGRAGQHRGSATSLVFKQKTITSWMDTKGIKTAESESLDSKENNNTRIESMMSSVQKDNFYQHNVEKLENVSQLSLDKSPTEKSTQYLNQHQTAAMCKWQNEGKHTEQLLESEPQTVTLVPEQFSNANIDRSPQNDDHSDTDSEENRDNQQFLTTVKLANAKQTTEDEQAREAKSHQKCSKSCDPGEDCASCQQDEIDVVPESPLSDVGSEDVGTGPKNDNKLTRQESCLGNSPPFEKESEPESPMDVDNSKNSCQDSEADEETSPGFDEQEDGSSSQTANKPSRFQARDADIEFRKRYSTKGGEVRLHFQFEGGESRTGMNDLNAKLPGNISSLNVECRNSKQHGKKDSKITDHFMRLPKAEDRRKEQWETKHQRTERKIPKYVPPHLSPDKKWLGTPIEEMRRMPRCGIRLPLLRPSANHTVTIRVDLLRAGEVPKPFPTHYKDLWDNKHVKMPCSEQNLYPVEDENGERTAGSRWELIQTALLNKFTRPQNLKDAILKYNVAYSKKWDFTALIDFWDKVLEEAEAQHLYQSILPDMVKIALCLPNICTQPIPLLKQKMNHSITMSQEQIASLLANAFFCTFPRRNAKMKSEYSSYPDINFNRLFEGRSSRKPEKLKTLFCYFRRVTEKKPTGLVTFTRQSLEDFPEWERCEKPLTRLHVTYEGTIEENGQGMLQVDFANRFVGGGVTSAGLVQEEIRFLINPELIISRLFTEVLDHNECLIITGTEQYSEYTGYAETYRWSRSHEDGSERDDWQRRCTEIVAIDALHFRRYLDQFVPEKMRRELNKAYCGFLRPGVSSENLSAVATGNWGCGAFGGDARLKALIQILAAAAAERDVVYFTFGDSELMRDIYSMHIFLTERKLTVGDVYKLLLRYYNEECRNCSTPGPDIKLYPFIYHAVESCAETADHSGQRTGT

Regarding `C#C[C@@H]1CN=C2N(Cc3cnn(C)c3)C(=O)c3cc(S(=O)(=O)NC4(C)CC4)cc(C4=CCN(C)CC4)c3N21` [Example 76, (R)-1-ethynyl-9-(1-methyl-1,2,3,6-tetrahydropyridin-4-yl)-4-((1-methyl-1H-pyrazol-4-yl)methyl)-N-(1-methylcyclopropyl)-5-oxo-1,2,4,5-tetrahydroimidazo[1,2-a]quinazoline-7-sulfonamide], the IC50 was under 100 nM.
Turning to `Cn1cc(CN2C(=O)c3cc(S(=O)(=O)NC4(C)CC4)ccc3N3C2=NC[C@H]3C#Cc2cnccn2)cn1` [Example 77, (R)-4-((1-methyl-1H-pyrazol-4-yl)methyl)-N-(1-methylcyclopropyl)-5-oxo-1-(pyrazin-2-ylethynyl)-1,2,4,5-tetrahydroimidazo[1,2-a]quinazoline-7-sulfonamide], the IC50 was under 100 nM.
Under `C[C@@H]1CN(c2cc(S(=O)(=O)NC3(C)CC3)cc3c2N2C(=NC[C@H]2C)N(Cc2cnn(C)c2)C3=O)CCN1` [Example 78, (R)-1-methyl-4-((1-methyl-1H-pyrazol-4-yl)methyl)-N-(1-methylcyclopropyl)-9-((R)-3-methylpiperazin-1-yl)-5-oxo-1,2,4,5-tetrahydroimidazo[1,2-a]quinazoline-7-sulfonamide] stands 100 to 1000 nM; under `C#C[C@@H]1CN=C2N(Cc3cnn(C)c3)C(=O)c3cc(S(=O)(=O)NC4(C)CC4)cc(C4=CCNCC4)c3N21` [Example 79, (R)-1-ethynyl-4-((1-methyl-1H-pyrazol-4-yl)methyl)-N-(1-methylcyclopropyl)-5-oxo-9-(1,2,3,6-tetrahydropyridin-4-yl)-1,2,4,5-tetrahydroimidazo[1,2-a]quinazoline-7-sulfonamide], 100 to 1000 nM; under `C[C@@H]1CN=C2N(Cc3cnn(C)c3)C(=O)c3cc(S(=O)(=O)NC4(C)CC4)cc(C4=CCNCC4)c3N21` [Example 80, (R)-1-methyl-4-((1-methyl-1H-pyrazol-4-yl)methyl)-N-(1-methylcyclopropyl)-5-oxo-9-(1,2,3,6-tetrahydropyridin-4-yl)-1,2,4,5-tetrahydroimidazo[1,2-a]quinazoline-7-sulfonamide], 100 to 1000 nM.
As to `CCN(CC)CC#C[C@@H]1CN=C2N(Cc3cnn(C)c3)C(=O)c3cc(S(=O)(=O)NC4(C)CC4)ccc3N21` [Example 81, (R)-1-(3-(diethylamino)prop-1-yn-1-yl)-4-((1-methyl-1H-pyrazol-4-yl)methyl)-N-(1-methylcyclopropyl)-5-oxo-1,2,4,5-tetrahydroimidazo[1,2-a]quinazoline-7-sulfonamide], the IC50 was under 100 nM.
With `C[C@@H]1CN=C2N(Cc3cnn(C)c3)C(=O)c3cc(S(=O)(=O)NC4(C)CC4)cc(N4CCN[C@@H](C)C4)c3N21` [Example 82, (R)-1-methyl-4-((1-methyl-1H-pyrazol-4-yl)methyl)-N-(1-methylcyclopropyl)-9-((S)-3-methylpiperazin-1-yl)-5-oxo-1,2,4,5-tetrahydroimidazo[1,2-a]quinazoline-7-sulfonamide] the figure was 1000 to 10000 nM; with `Cn1cc(CN2C(=O)c3cc(S(=O)(=O)NC4(C)CC4)ccc3N3C2=NC[C@H]3C#Cc2nccn2C)cn1` [Example 83, (R)-1-((1-methyl-1H-imidazol-2-yl)ethynyl)-4-((1-methyl-1H-pyrazol-4-yl)methyl)-N-(1-methylcyclopropyl)-5-oxo-1,2,4,5-tetrahydroimidazo[1,2-a]quinazoline-7-sulfonamide], under 100 nM.
As for `Cc1nnc(N2C3=NC[C@@H](C)N3c3ccc(S(=O)(=O)NC4(C)CC4)cc32)s1` [Example 84, (R)-3-methyl-9-(5-methyl-1,3,4-thiadiazol-2-yl)-N-(1-methylcyclopropyl)-2,9-dihydro-3H-benzo[d]imidazo[1,2-a]imidazole-7-sulfonamide], the IC50 was 100 to 1000 nM.
With `C[C@@H]1CCN=C2N(c3nnc(C(F)F)s3)c3cc(S(=O)(=O)NC4(C)CC4)ccc3N21` [Example 85] the figure was under 100 nM.

The values are drawn from patent publication US20260285875A1, “INHIBITORS OF PARG” (858 Therapeutics, Inc., priority 2023, published 2026).
